PMC12655060, “Modified Hevein-like Peptide from Amaranthus caudatus as a Promising Agent Against Pathogenic Candida Species” (Pharmaceutics, 2025)
Values after ≈ are worked out from the molar mass of the structure shown. Values joined by “and” are separate entries in the source; they are usually repeats but may differ in a detail not shown here. Equal entries are not always repeated. Where two headings read alike, the source gives them in different places. Positions of bridges follow the written chain, without caps; N, C: chain ends. No end group written: not given here.

Columns and labels:
[1] = tested on: Caco-2 cells in a monolayer; assay: Cytotoxicity assay (resazurin); assay type: cell-based, human; settings: 12.5 µM, 24 h
Procedure: Then 10 µL of resazurin at a concentration of 0.7 mM was added and the incubation was continued for 4 h. Untreated cells and cells in the presence of 0.1% Triton X-100 were used as negative and positive controls, respectively. The cell viability was estimated by resorufin fluorescence registered at 595 nm as (Fsample/Fcontrol) × 100%. Wells containing no cells were used to subtract background fluorescence. This experiment was carried out twice in duplicate.

C. albicans ATCC 18804 [2] = assay: Calcofluor White binding assay (cell wall chitin content); assay type: cell-based, Candida albicans; settings: at MIC
Procedure: Polyene antimycotic amphotericin B (AmB) was also used in these experiments. […] Cell cultures were harvested, washed twice with PBS, and stained with 20 μg/mL CFW in PBS for 30 min. After that stained cells were washed three times with PBS and the cell density of each group was adjusted to 10^6 cells/mL using Cell Counter LUNA-II (Logos Biosystems, Anyang-si, Republic of Korea) and trypan blue. Unstained or stained untreated by antifungal agent cells were used as negative and positive controls, respectively. Fluorescence intensities were measured at 20 °C using a Hitachi F-2710 spectrofluorometer (Hitachi High Technologies America Inc., Pleasanton, CA, USA) with excitation and emission wavelengths of 350 nm (10 nm width) and 435 nm, respectively. Results were expressed as % of fluorescence intensity in comparison to positive control. This study was performed twice in triplicate.

C. albicans ATCC 18804 [3] = tested on: C. albicans ATCC 18804; set-up: method as in PMID 39770352, PMID 39337545; settings: 2 h, same conditions; cited from earlier work
C. albicans ATCC 18804 [4] = settings: for MIC, RPMI-1640 / MIC, ½Sabouraud broth: Table S4; for antifungal activity in RPMI-1640: at a concentration of 50 μM
Procedure: (§1) Briefly, fungal cells at a concentration of 4 × 10^4 cells/mL in the Sabouraud broth were mixed with equal volumes of serial dilutions of the peptide in water (final volume 100 μL and pH 6.0) and incubated at 30 °C for 24 h. Inhibition of fungal growth was assessed relative to the peptide-free control, based on absorbance at 630 nm and microscopic analysis. MIC50 and MIC were defined as minimal concentrations of the peptide, causing 50 and 100% inhibition of fungal growth. […] The effects of heating and reduction in disulfide bonds on the activity of the peptide towards C. albicans ATCC 18804 was also tested. […] Tobacco defensin NaD1, whose structure is also stabilized by disulfide bonds, was used for comparison in these experiments. The effect of reduced L-glutathione (AppliChem, Darmstadt, Germany), a component of RPMI-1640 medium, at a final concentration of 3.25 μM, was also studied.
(§2) Each experiment was conducted twice in triplicate. The microplate wells were pre-treated with 0.1% BSA to minimize adsorption of antifungal agents.

C. albicans ATCC 18804 [5] = assay type: cell-based, Candida albicans
Procedure: (§3) Serial dilutions of the mixture of two combinable substances were added to the equal volumes of fungal cell suspensions in this case. […] Caspofungin or ebselen in 1% DMSO as well as voriconazole in 1% methanol were tested in these experiments.

C. albicans 8.2 [6] = assay: Prevention of adhesion to the plastic surface; assay type: cell-based, Candida albicans; settings: for Cell adhesion, % / Inhibition of adhesion, %: plastic surface
Procedure: The plates were incubated for 1.5 h at 37 °C; after that, plate wells were washed twice with PBS to remove unattached C. albicans cells. Adherent cells were detached by microplate incubation for 45 min with trypsin/EDTA solution. Enzymatic activity was stopped by an addition of 10% FBS. After that the well contents were scraped, diluted 100-fold with PBS, and plated on Sabouraud agar with glucose and chloramphenicol. In this case, adhesion was calculated as ((N × 100)/5 × 10^5) × 100%, and adhesion inhibition was calculated as described above. These experiments were carried out twice in triplicate.

C. albicans 8.2 [7] = assay: Antifungal microdilution assay; assay type: cell-based; settings: Candida albicans, Sabouraud broth
Procedure: as §1, §2

C. albicans ATCC 18804 [8] = assay: Resistance induction experiments (serial passage); assay type: cell-based, Candida albicans; settings: passaging at 0.25 × MIC for 24 days; mAc-AMP2 8th and 24th, caspofungin 21, LL-37 24th passage
Procedure: For comparison, the echinocandin caspofungin, human cathelicidin LL-37, and tobacco defensin NaD1 were used in these experiments. C. albicans ATCC 18804 or ATCC 10231 at a concentration of 4 × 10^4 cells/mL were added to serial dilutions of antifungal agents. The 96-well microplates were incubated overnight at 30 °C and MIC values were determined as described above. […] Sequential passaging followed by MIC determination continued for 24 days. […] After that whole cultures as well as single colonies were used for MICs determination to confirm the stability of acquired resistance to the peptide.

C. albicans 9.1 [9] = settings: 12.5 μM (2 × MIC) and 25 μM (4 × MIC), same conditions; cited from earlier work
C. albicans 9.1 [10] = assay type: cell-based, Candida albicans; settings: for [A]/MICA: ratio for mAc-AMP2 in the combination; for [B]/MICB: ratio for the named agent in the combination
Procedure: as §3

C. albicans 8.2 [11] = assay type: cell-based, Candida albicans; settings: for [A]/MICA: ratio for mAc-AMP2 in the combination; for [B]/MICB: ratio for the named agent in the combination
Procedure: as §3

C. albicans 8.2 [12] = settings: 12.5 μM (2 × MIC) and 25 μM (4 × MIC), same conditions; cited from earlier work
[13] = ratio of mAc-AMP2 concentration in the combination with the named agent to its MIC
[14] = ratio of the named agent's concentration in combination with mAc-AMP2 to its MIC
[15] = combination of the named agent with mAc-AMP2

melittin
cell death [1]: about 100%

C[C@@H]1[C@H](O)[C@@H](C)/C=C/C=C/C=C/C=C/C=C/C=C/C=C/[C@H](O[C@@H]2O[C@H](C)[C@@H](O)[C@H](N)[C@@H]2O)C[C@@H]2O[C@](O)(C[C@@H](O)C[C@@H](O)[C@H](O)CC[C@@H](O)C[C@@H](O)CC(=O)O[C@H]1C)C[C@H](O)[C@H]2C(=O)O [amphotericin B]
fluorescence intensity of Calcofluor White-stained cells (C. albicans ATCC 18804 [2]): reduced | effect on PI uptake (C. albicans ATCC 18804 [3]): no effects

GIGDPVTCLKSGAICHPVFCPRRYKQIGTCGLPGTKCCKKP (disulfide 8-37, 15-30, 20-38 (inferred)) [HBD2]
MIC, RPMI-1640 (C. albicans ATCC 18804 [4]): > 50 µM | MIC, ½Sabouraud broth (C. albicans ATCC 18804 [4]; ½Sabouraud broth): 6.25 µM | antifungal activity in RPMI-1640 (C. albicans ATCC 18804 [4]): did not exhibit antifungal activity | [A]/MICA (C. albicans ATCC 18804 [5]; [13]): 0.5 | [B]/MICB (C. albicans ATCC 18804 [5]; [14]): 0.5

CC[C@H](C)C[C@H](C)CCCCCCCCC(=O)N[C@H]1C[C@@H](O)[C@@H](NCCN)NC(=O)[C@@H]2[C@@H](O)CCN2C(=O)[C@H]([C@H](O)CCN)NC(=O)[C@H]([C@H](O)[C@@H](O)c2ccc(O)cc2)NC(=O)[C@@H]2C[C@@H](O)CN2C(=O)[C@H]([C@@H](C)O)NC1=O [Caspofungin]
inhibition at 5.12 µg/mL (C. albicans 8.2 [6]; Candida albicans, 8.2, read-out: Inhibition of adhesion): ~40% | MIC (C. albicans 8.2 [7]): 0.04 µg/mL (≈ 0.0366 µM) | MIC increase during serial passage (C. albicans ATCC 18804 [8]): eight-fold | FICI (C. albicans ATCC 18804 [5]; [15]): 2 | [A]/MICA (C. albicans ATCC 18804 [5]; [13]): 1 | [B]/MICB (C. albicans ATCC 18804 [5]; [14]): 1 | effect on PI uptake (C. albicans ATCC 18804 [3]): no effects

RECKTESNTFPGICITKPPCRKACISEKFTDGHCSKILRRCLCTKPC (disulfide 3-47, 14-34, 20-41, 24-43 (inferred)) [NaD1]
Cell adhesion, % (C. albicans 8.2 [6]; 3.13 μM): 5.29% | Cell adhesion, % (C. albicans 8.2 [6]; 6.25 μM): 0.96% | Inhibition of adhesion, % (C. albicans 8.2 [6]; 6.25 μM): 81.32% | Cell adhesion, % (C. albicans 8.2 [6]; 12.5 μM, Sabouraud broth, 1.5 h, 37 °C): 0.15% | Inhibition of adhesion, % (C. albicans 8.2 [6]; 12.5 μM): 97.12% and ~100% | Cell adhesion, % (C. albicans 8.2 [6]; 25 μM, Sabouraud broth, 1.5 h, 37 °C): 0.05% | Inhibition of adhesion, % (C. albicans 8.2 [6]; 25 μM): 99.03% | effect on adhesion to the Caco-2 cell monolayer (C. albicans 9.1 [9]): effectively inhibited the adhesion | MFC (C. albicans ATCC 18804 [4]; ATCC 18804, 24 h): 25 µM | MIC (C. albicans ATCC 18804 [4]; ATCC 18804, 24 h): 6.25 µM | MFC (C. albicans ATCC 18804 [4]; ATCC 18804, 24 h, pH 6): 12.5 µM | MIC (C. albicans ATCC 18804 [4]; ATCC 18804, 24 h, pH 6): 6.25 µM | MIC increase during serial passage (C. albicans ATCC 18804 [8]): no change in the sensitivity | FICI (C. albicans ATCC 18804 [5]): 0.75 | [A]/MICA (C. albicans ATCC 18804 [5]; [13]): 0.5 | [B]/MICB (C. albicans ATCC 18804 [5]; [14]): 0.25 | FICI (C. albicans 9.1 [10]; 9.1): 1 | [A]/MICA (C. albicans 9.1 [10]; strain 9.1): 0.5 | [B]/MICB (C. albicans 9.1 [10]; strain 9.1): 0.5 | FICI (C. albicans 8.2 [11]; 8.2): 1 | [A]/MICA (C. albicans 8.2 [11]; strain 8.2): 0.5 | [B]/MICB (C. albicans 8.2 [11]; strain 8.2): 0.5 | effect on adhesion to the Caco-2 cell monolayer (C. albicans 8.2 [12]): effectively inhibited the adhesion

CC[C@H](C)[C@H](NC(=O)[C@H](CCCCN)NC(=O)[C@H](CCC(=O)O)NC(=O)[C@H](CCCCN)NC(=O)[C@H](CO)NC(=O)[C@H](CCCCN)NC(=O)[C@H](CCCNC(=N)N)NC(=O)[C@H](Cc1ccccc1)NC(=O)[C@H](Cc1ccccc1)NC(=O)[C@H](CC(=O)O)NC(=O)CNC(=O)[C@H](CC(C)C)NC(=O)[C@@H](N)CC(C)C)C(=O)NCC(=O)N[C@@H](CCCCN)C(=O)N[C@@H](CCC(=O)O)C(=O)N[C@@H](Cc1ccccc1)C(=O)N[C@@H](CCCCN)C(=O)N[C@@H](CCCNC(=N)N)C(=O)N[C@H](C(=O)N[C@H](C(=O)N[C@@H](CCC(N)=O)C(=O)N[C@@H](CCCNC(=N)N)C(=O)N[C@H](C(=O)N[C@@H](CCCCN)C(=O)N[C@@H](CC(=O)O)C(=O)N[C@@H](Cc1ccccc1)C(=O)N[C@@H](CC(C)C)C(=O)N[C@@H](CCCNC(=N)N)C(=O)N[C@@H](CC(N)=O)C(=O)N[C@@H](CC(C)C)C(=O)N[C@H](C(=O)N1CCC[C@H]1C(=O)N[C@@H](CCCNC(=N)N)C(=O)N[C@H](C(=O)N[C@@H](CCC(=O)O)C(=O)N[C@@H](CO)C(=O)O)[C@@H](C)O)C(C)C)[C@@H](C)CC)C(C)C)[C@@H](C)CC [LL-37]
MIC, RPMI-1640 (C. albicans ATCC 18804 [4]): > 50 µM | MIC, ½Sabouraud broth (C. albicans ATCC 18804 [4]; ½Sabouraud broth): 12.5 µM (≈ 56.2 µg/mL) | antifungal activity in RPMI-1640 (C. albicans ATCC 18804 [4]): did not exhibit antifungal activity | MIC (C. albicans ATCC 18804 [4]; microdilution, ½Sabouraud broth, pH 6.0, no salts, no FBS, 30 °C, 24 h, 100% growth inhibition, twice in triplicate): 12.5 µM | MIC increase during serial passage (C. albicans ATCC 18804 [8]): two-fold | [A]/MICA (C. albicans ATCC 18804 [5]; [13]): 0.5 | [B]/MICB (C. albicans ATCC 18804 [5]; [14]): 0.5

C[C@@H](c1ncncc1F)[C@](O)(Cn1cncn1)c1ccc(F)cc1F [Voriconazole]
FICI (C. albicans ATCC 18804 [5]; combination with mAc-AMP2, for voriconazole MIC50 values were used): 2 | [A]/MICA (C. albicans ATCC 18804 [5]; ratio for mAc-AMP2 in the combination, for voriconazole MIC50 values were used): 1 | [B]/MICB (C. albicans ATCC 18804 [5]; ratio for voriconazole in the combination, MIC50 values were used): 1

O=c1c2ccccc2[se]n1-c1ccccc1 [Ebselen]
FICI (C. albicans ATCC 18804 [5]; [15]): 1 | [A]/MICA (C. albicans ATCC 18804 [5]; [13]): 0.5 | [B]/MICB (C. albicans ATCC 18804 [5]; [14]): 0.5 | FICI (C. albicans 9.1 [10]; combination of the named agent with mAc-AMP2, strain 9.1): 1 | [A]/MICA (C. albicans 9.1 [10]; strain 9.1): 0.5 | [B]/MICB (C. albicans 9.1 [10]; strain 9.1): 0.5 | FICI (C. albicans 8.2 [11]; combination of the named agent with mAc-AMP2, strain 8.2): 0.75 | [A]/MICA (C. albicans 8.2 [11]; strain 8.2): 0.5 | [B]/MICB (C. albicans 8.2 [11]; strain 8.2): 0.25
